System: DU-145 cells
Type: cell-based, human

C=C1[C@@H](C)[C@H]2[C@H](Cc3ccccc3)NC(=O)[C@]23[C@H](OC(C)=O)/C=C/[C@@](C)(O)C(=O)[C@@H](C)C/C=C/[C@H]3[C@@H]1O [Cytochalasin-D]
Relative Wound Density at 24 Hours, Mean: 3.3 ± 0.2 | Relative Wound Density at 24 Hours, Percent Relative to Media: 4% | effect on cell migration (in words): did not migrate
